Columns and labels:
[1] = target: Germacrene D synthase (Actinidia deliciosa, UniProt Q32W37); assay: Kinetic studies with 3H-FDP, pentane overlay scintillation assay; assay type: biochemical; conditions: for effect of added ions on activity: 50 mM KCl or NaCl; for inhibition at high concentrations of the chloride salts: >5 mM and 10 mM of the respective Mg2+ and Mn2+ chloride salts
Description: Optimisation of large-scale production of protein and protein kinetics: E. coli BL21-PlusTM-RIL cells harbouring pET-30a75565 were grown overnight at 37° C. in Lauria-Bertani media supplemented with 30 μg ml^-1 kanamycin and 34 μg ml chloramphenicol^-1. 5 mL aliquots of overnight culture were used to inoculate 4×300 mL of fresh 2× YT medium supplemented with 30 μg ml^-1 […] 34 μg ml^-1 chloramphenicol in 1 L baffled flasks. Cultures were grown at 37° C. with vigorous agitation to A600=0.8, then removed to 4° C. to equilibrate to 16° C. before induction with 0.3 mM IPTG. Induced cultures were then incubated at 16° C. and 220 rpm for a further 72 hours. Cells were pelleted by centrifugation (2500×g; 10 min) and stored overnight at -20° C. The following day cell pellets were resuspended in 20 mL His6 binding buffer and cells were disrupted by 2 passes through an EmulsiFlex®-C15 high-pressure homogeniser (Avestin) with a pressure setting between 15000-20000 psi. Cell debris was pelleted by centrifugation 2× at 10000×g for 15 min; 4° C. (Sorval SS34 rotor). […] Filtered extract was desalted and passed over a Nickel affinity column. Concentration of the recombinant synthase in the purified protein extracts was estimated from SDS-PAGE gels by comparing against a BenchMarkTM Protein Ladder (Invitrogen). Purified extracts were adjusted to a workable concentration with His6 elution buffer (without Imidazole) containing 10% glycerol and 1 mM DTT. The extract was then separated into 100 μl aliquots and stored at -80° C. until required. […] Kinetic Studies: […] Tritiated FDP was added variously depending on the experiment. One mL assays containing 100-150 ng of the recombinant synthase were overlaid with 0.6 mL pentane and incubated in 1.5 mL microfuge tubes for 2 hours at 30° C. and 150 rpm. All assays were performed in triplicate. Following incubation assays were immediately placed on ice and a 200 μL aliquot of the pentane layer removed for analysis. The aliquots were added to 1.5 mL microfuge tubes containing 0.7 mL Organic Counting Scintillant (OCS) (Amersham) and vortexed briefly. Scintillation analysis was performed using a Wallac 1409 Liquid Scintillation Counter (^3H efficiency≈70%). […] The effect on enzyme activity of metal co-factors with and without salts was also tested. Mg^2+ and Mn^2+ were added in the presence and absence of 50 mM KCL and 50 mM NaCl in all possible combinations. Controls included incubation without enzyme, with enzyme but without metal ion cofactors and with enzyme and cofactors in the presence of 10 mM EDTA. A further control comprising His6 purified pET-30a extract was also assayed to determine potential utilisation of FDP by co-purifying bacterial proteins. […] Kinetic constants were determined from the DPM data by nonlinear regression using the Origin50 graphics package.

[2] = tested on: house dust mites; conditions: Chang et al. 2001; cited from earlier work
[3] = Thermal rearrangement, pentane extracts from purified protein injected at different port temperatures; assay type: physicochemical
Description: Dynamic headspace methods were also used to collect the headspace volatiles from the purified extracts on to 100 mg Chromosorb 105 adsorbent traps. The protein was placed into 50 mL Quickfit® test tubes, which were fitted with a headspace adaptor with an air inlet and outlet. Volatiles were collected onto the Chromosorb 105 adsorbent traps, which were fitted to the air outlet port of each adaptor. The volatiles were purged from the vessel onto the traps with clean air at 50 mL min^−1 for 18 hours. The traps were stored at −15° C. for up to one week, and then subjected to GC-FIDIMS analysis. Finally, pentane extracts were taken from the purified extracts. An aliquot (2.5 ml) of pentane was added to the purified extracts and was left to extract for 18 hours. The pentane was removed and then concentrated with a stream of N2 gas. This was then injected onto the GC-MS at 150° C.
More light can be shed on the possibility of rearrangement of the products using pentane extraction.
In an experiment to test for thermal rearrangement, injections of pentane extract from purified protein were made at temperatures of 125, 150 and 210° C.; or pentane extract from Actinidia flowers were made at temperatures of 100, 125, 150 and 210° C. […] Germacrene B modulated slightly in response to temperature shifts although no gamma-elemene was found as might be predicted. In addition the predicted precursor for delta elemene—germacrene C (Feger et al., Flavour and Fragrance Journal 15: 170-173 (2000)) was not detected at any time. Germacrene A was also not detected at any time. […] Elemol may arise from further rearrangements of delta-elemene or from other elemene sources or from hedycaryol (Chamblee et al., J. Essent. Oil Res. 9: 127-132 (1997)). No GC-MS traces in any experiments indicated evidence for germacrene-C or for hedycaryol.

[4] = Thermal rearrangement, pentane extracts from Actinidia flowers injected at different port temperatures; assay type: physicochemical
Description: Whole flowers of the same plants were also harvested at anthesis in 2000. 18.6 g and 21 g of flowers from a mixture of developmental stages were placed in 2× Quickfit® Erlenmeyer flasks as above. Volatiles were collected onto a Chromosorb adsorbent trap in duplicate, after the system had been equilibrated for 30 min at room temperature (ca. 23° C.), by purging onto the trap with clean air at 25 mL min^−1 for 60 minutes. The trap was stored at −15° C. for one week and then analysed by GC-FD/MS. The same petals (1.99 g) were then extracted with pentane-ether (2 ml) and stored at −20° C. until analysed. The pentane (GPR, BDH) had been purified by distillation and by passing through a column of activated alumina. Pentane extracts were reduced by rotary evaporation and were dried by passing through a small column of anhydrous MgSO4 before the volume was reduced to ca. 50 μL under a gentle stream of nitrogen. The extract was analysed by GC-FID/MS.
GC-MS Analysis of dynamic headspace samples and pentane extracts: Volatile compounds were thermally desorbed from the headspace traps at 150° C. and were cryo-focussed at the beginning of the GC column (Young, 1981). The column outlet was split between the GC (Hewlett Packard 5890) FID detector (for quantitation) and VG-70SE (VG-Micromass, Manchester, U.K.) mass spectrometer (for component identification) with an electron impact ionisation of 70 eV. Separations were carried out in a 30 m×0.32 mm i.d., 0.5 μn DBWax capillary column (J & W Scientific, Folsom, USA), starting at 30° C. for 6 min, increasing by 3° C. min^−1 to 102° C., 5° C. min^−1 to 210° C. and held for 5 min. Injector temperature was 210° C. The carrier gas was He at a flow rate of ˜30 cm s^−1, and the FID and mass spectrometer transfer line were at 210° C. Quantification of compounds was carried out using an average detector response based on methyl butanoate, ethyl butanoate, hexanol and methyl benzoate. Components were identified by comparison with spectra in the mass spectral database (NIST 1998, Wiley 7 and an in-house database), retention indices (in-house database) and in some cases direct GC-MS comparison with authentic standards. Separations for the earlier 2000 samples were carried out in the same manner as above except the programme started at 30° C. for 6 min, increasing by 3° C. min^−1 to 102° C., 5° C. min^−1 to 190° C. and held for 5 min. Analysis of the pentane extract used a programme of 2 min at 40° C., 5° C. min^−1 to 200° C., 15° C. m^−1 to 240° C. and held for 20 min. For genotype 32-10-07a: the GC-MS was programmed to start at 30° C. for 2 min, increasing by 3° C. min^−1 to 50° C., 5° C. min^−1 to 130° C., 10° C. min^−1 to 240° C. and held for 2 min. Injector temperature was 240° C.
In an experiment to test for thermal rearrangement, injections of pentane extract from purified protein were made at temperatures of 125, 150 and 210° C.; or pentane extract from Actinidia flowers were made at temperatures of 100, 125, 150 and 210° C.

[5] = tested on: other sesquiterpene synthases; conditions: read-out: Km in the literature; cited from earlier work
[6] = tested on: multifunctional germacrene D synthase; assay: Headspace volatiles above E. coli BL21 cultures harbouring pET30a75565, PDMS/DVB SPME; assay type: cell-based, Actinidia deliciosa; conditions: bacterial cultures
Description: Expression and characterization of multifunctional germacrene D synthase from bacterial cultures: E. coli BL21-Plus™-RIL cells harbouring pET30a75565, or empty pET30a vector as a control, were grown overnight at 37° C. in Luria-Bertani media supplemented with 30 μg/mL kanamycin and 50 μg/mL chloramphenicol. […] of overnight culture was used to inoculate 50 mL of fresh 2× YT medium supplemented with 30 μg/mL kanamycin and 50 μg/mL chloramphenicol. […] The culture was immediately transferred to an incubator set at 16° C., 30° C. or 37° C. depending on the experiment The headspace in the vessels above the bacterial cultures was collected immediately after the addition of FDP (or GDP) and hexadecane (the internal standard) using solid phase micro extraction (SPME). […] The background was analysed for contamination using GC-FID (HP5890) prior to use. The headspace volatiles were collected for ˜20 hours at 30° C. with continuous agitation (110 rpm). Prior to analysis using a GC-FID/MS, the fibres were stored at ambient temperature in septum sealed glass vials. The PDMS/DVB fibres were desorbed in the injector at 260° C.

[7] = tested on: multifunctional germacrene D synthase (EST75565); assay: Sesquiterpene products of purified recombinant protein + FDP, headspace trapping GC-MS; assay type: biochemical, Actinidia deliciosa
Description: Characterization of multifunctional germacrene D synthase from bacterial extracts and purified recombinant protein: E. coli BL21-Plus™-RIL cells harbouring pET-30a75565 were grown overnight at 37° C. in Lauria-Bertani media supplemented with 30 μg ml^−1 kanamycin and 34 μg ml chloramphenicol^−1. 5 mL aliquots of overnight culture were used to inoculate 4×300 mL of fresh 2× YT medium supplemented with 30 μg ml^−1 kanamycin and 34 μg ml^−1 chloramphenicol in 1 L baffled flasks. Cultures were grown at 37° C. with vigorous agitation to A600=0.8, then removed to 4° C. to equilibrate to 16° C. before induction with 0.3 mM IPTG. Following induction, cultures were immediately transferred to a 16° C. incubator and allowed to grow for a further 24 hours with continuous agitation and then harvested by centrifugation (2000×g for 10 min). […]
The headspace in the testubes was collected immediately after the addition of FDP (or GDP) and hexadecane (internal standard) using solid phase micro extraction (SPME). […] The background was analysed for contamination using GC-FID (HP5890) prior to use. […]
The volatiles were desorbed from the fibres in the GC injection port for 10 minutes at 220° C. for the Carbowax/DVB fibres. […] Semi-quantitative data was obtained by measuring sample peak area relative to hexadecane internal standard. […]

[8] = injection port temperature 125 °C
[9] = injection port temperature 150 °C
[10] = injection port temperature 210 °C

CC(C)=CCC/C(C)=C/CC/C(C)=C/CO[P@@](=O)(O)OP(=O)(O)O (stereo in doubt) [FDP, farnesyl diphosphate]
Km ([1]; saturating Mg2+, pH 7.5, 30 °C): 1 to 2 µM

CC1=C[C@@H]2[C@@H](CC1)[C@](C)(O)CC[C@H]2C(C)C [Alpha-cadinol]
miticidal activity [2]: potent miticide

C=C[C@]1(C)CC[C@@H](C(C)(C)O)C[C@H]1C(=C)C [Elemol]
Peak Area [3, 8]: ca. 9 × 10^4^ | Peak Area [3, 9]: ca. 1.4 × 10^5^ | Peak Area [3, 10]: 5.75 × 10^6 | Peak Area [4, 9]: ca. 8.4 × 10^6 | Peak Area [4, 10]: 3.78 × 10^7

CC(C)=CCC/C(C)=C/CC/C(C)=C/COP(=O)(O)OP(=O)(O)O [FDP, farnesyl diphosphate]
saturating concentration of FDP [1]: ~7.5 µM | inhibition by substrate ([1]; 1 mM substrate concentration): ~50% | Km [5]: 0.4 to 4.5 µM

CC(C)=CCC/C(C)=C/COP(=O)(O)OP(=O)(O)O [GDP, geranyl diphosphate]
products on addition of GDP instead of FDP [6]: did not result in the production of any monoterpenes | products on addition of GDP instead of FDP [7]: did not produce any germacrene D

CC(C)=C1C/C=C(\C)CC/C=C(\C)CC1 [Germacrene B]
Peak Area [3, 8]: 7.57 × 10^5 | Peak Area [3, 9]: 8.58 × 10^5 | Peak Area [3, 10]: 5.87 × 10^5 | Peak Area ([4]; injection port temperature 100 °C): 5.0 × 10^6 | Peak Area [4, 8]: 7.40 × 10^6 | Peak Area [4, 9]: 1.0 × 10^7 | Peak Area [4, 10]: 3.92 × 10^6

[K+] [K^+]
effect of added ions on activity [1]: little or no effect

[Mg+2] [Mg^2+]
inhibition at high concentrations of the chloride salts [1]: No significant inhibition | Km [5]: 70 to 150 µM

[Mn+2] [Mn^2+]
Vrel with Mn2+ as cofactor relative to Mg2+ [1]: ~27% | effect of Mn in the buffer when Mg2+ present [1]: inhibition of activity | inhibition at high concentrations of the chloride salts [1]: No significant inhibition | Km [5]: 7 to 30 µM

[Na+] [Na^+]
effect of added ions on activity [1]: little or no effect

C=C[C@@]1(C)CCC(C(C)C)=C[C@@H]1C(=C)C [δ-Elemene]
Peak Area [3, 10]: 9.05 × 10^5 | Peak Area [4, 9]: ca. 5.7 × 10^5 | Peak Area [4, 10]: 4.14 × 10^6

B1: Germacrene D synthase: recombinant His6-tagged sesquiterpene synthase from Actinidia deliciosa petals, SEQ ID NO:2 (protein, listed as Actinidia deliciosa)
chain: MQLPCAQALPIPTVTTTTSIEPPHVTRRSANYHPSIWGDHFLAYSSDAMEEEVINMEQQQRLHHLKQKVRKMLEAAAEQSSQMLNLVDKIQRLGVSYHFETEIETALRHIYKTCDYHFDDLHTAALSFRLLRQQGYPVSCDMFDKFKNSKGEFQESIISDVQGMLSLYEATCLRIHGEDILDEALAFTITQLRSALPNLSTPFKEQIIHALNQPIHKGLTRLNARSHILFFEQNDCHSKDLLNFAKLDFNLLQKLHQRELCEITRWWKDLNFAKTLPFARDRMVECYFWILGVYFEPQYLLARRMLTKVIAMISIIDDIYDVYGTLEELVLFTDAIERWEISALDQLPEYMKLCYQALLDVYSMIDEEMAKQGRSYCVDYAKSSMKILVRAYFEEAKWFHQGYVPTMEEYMQVALVTAGYKMLATSSFVGMGDLATKEAFDWVSNDPLIVQAASVIGRLKDDIVGHKFEQKRGHVASAVECYSKQHGTTEEEAIIELDKQVTHSWKDINAECLCPIKVPMPLLARVLNLARVLYVIYQDEDGYTHPGTKVENFVTSVLIDSMPIN
modifications: His6 tag
decrease in enzyme activity ([1]; 0.5 pH units lower than 7.5): 47% | decrease in enzyme activity ([1]; 1 pH unit higher than 7.5): 59% | activity relative to optimal temperature activity ([1]; 16 °C): ~56% | activity at high temperature ([1]; 50 °C): Little or no activity | Vrel in the absence of DTT ([1]; optimal conditions, without DTT): ~53% | temperature of maximum synthase activity ([1]; range 16-50 °C, 10 mM MgCl2, 10 μM FDP): 30 °C | pH optimum ([1]; tri-buffer system pH 5.7-9.5, 10 mM MgCl2, 10 μM FDP): 7.5

Source: patent publication US7312323B2, “Enzymes and polynucleotides encoding the same” (The Horticulture and Food Research Institute of New Zealand …, priority 2002, dated 2007)
